# System: S. intermedius 8407075
# Experiment: Experiment 7: effect of maltose on α-glucosidase activity, weak inocula
# Assay type: cell-based, Staphylococcus intermedius
# Parameters: key: 0 corresponds to a lack of activity; 0.1 corresponds to the presence of a trace of coloration; 0.5 corresponds to the presence of a very pale coloration; 1 corresponds to the presence of a clear coloration of weak intensity; 1.5 corresponds to the presence of a coloration which is intermediate between colorations 1 and 2; 2 corresponds to the presence of a true coloration of medium intensity; 2.5 corresponds to the presence of a coloration which is intermediate between colorations 2 and 3; 3 corresponds to the presence of an intense coloration; 3.5 corresponds to the presence of a coloration which is intermediate between colorations 3 and 4; 4 corresponds to the presence of a very intense coloration
# Conditions: strain 6
# Method: The maltose is solubilized in water at a concentration of, for example, 100 g/l, and then a sufficient volume to obtain the final concentrations above is added to the three molten media. The Staphylococcal strains derived from the bioMérieux internal collection were seeded onto each one of the chromogenic media on their own (closely spaced perpendicular streaks over the entire surface of the dish) using a suspension at 0.5 MacFarland diluted to 1/30000. The dishes were incubated at 37° C. for 48 hours. The colonies formed were examined visually after 18, 24 and 48 hours of incubation and the intensity of coloration of the colonies was marked. The coloration was noted and the intensity of these colorations was marked. The reading scale is the same as that used above for tables 2 and 4.
compound,measurement,setting,value
"OC[C@H]1O[C@H](O[C@H]2[C@H](O)[C@@H](O)C(O)O[C@@H]2CO)[C@H](O)[C@@H](O)[C@@H]1O (mixture of isomers) [Maltose, maltose]",Intensity of coloration of the colonies,"18 h, Maltose 100 mg/l",0.3
same,Intensity of coloration of the colonies,"18 h, Maltose 300 mg/l",0.3
same,Intensity of coloration of the colonies,"18 h, Maltose 400 mg/l",0.3
same,Intensity of coloration of the colonies,"24 h, Maltose 100 mg/l",0.6
same,Intensity of coloration of the colonies,"24 h, Maltose 300 mg/l",0.8
same,Intensity of coloration of the colonies,"24 h, Maltose 400 mg/l",1
same,Intensity of coloration of the colonies,">40 h, Maltose 100 mg/l",0.8
same,Intensity of coloration of the colonies,">40 h, Maltose 300 mg/l",1
same,Intensity of coloration of the colonies,">40 h, Maltose 400 mg/l",1.3
